What was measured:
L6 muscle cells = assay: Cell-Based GSK 3-β Assay (glycogen content of L6 muscle cells); conditions: for 14C-Glucose Incorporation (dpm): L6 cells, 2 hours, 0.0 μM control Cpd 1 1640, Cpd 2 2078; for glycogen synthesis in L6 skeletal muscle cells: upon exposure to compound, result in words
Description: Glycogen content of L6 muscle cells was measured according to the method described in Berger and Hayes, Anal. Biochem., 1998, 261, 159-163.
Briefly, L6 cells were serum starved overnight in alpha-MEM containing 0.1%. On the following day, cells were washed three times with 300 μL KRPH buffer (150 mM NaCl, 5 mM KCl, 2.9 mM Na2HPO4, 1.25 mM MgSO4, 1.2 mM CaCl2, 10 mM HEPES, pH 7.4) and labeled with 200 μL alpha-MEM containing 5.5 mM ^14C-Glucose (0.1 μCi) in the presence of vehicle (DMSO) or compounds. After 2 hours, cells were washed three times with ice-cold PBS and glycogen was precipitated for 2 hours using ice-cold 66% EtOH. Precipitated glycogen was then washed three times with ice-cold 66% EtOH and ^14C-glycogen was quantified using a TopCount (Packard).
Compounds were tested in separate experiments at the dose levels shown. Where shown, the 0.0 μM dose was used as a control.

PKC α = PKC α (Homo sapiens, UniProt P17252); assay: Biotinylated Peptide Substrate Assay, PKC α; type: biochemical; conditions: 10 μM ATP; >10 = no 50% inhibition at highest dose tested
Description: Biotinylated peptide substrates were selected from the literature as appropriate for the enzyme being evaluated.
Assay conditions vary slightly for each protein kinase, for example, insulin receptor kinase requires 10 mM MnCl2 for activity and Calmodulin-dependent protein kinase requires calmodulin and 10 mM CaCl2. […] Enzyme was diluted in 50 mM Tris-HCl pH=8.0, 0.1% BSA and added to each well. The reaction was incubated for one hour at 30° C. in the presence of compound. After one hour the reaction mix was aspirated from the plate and the plate was washed with PBS containing 100 mM EDTA. The plate was read on a scintillation counter to determine ^33P-γ-ATP incorporated into the immobilized peptide. […] A maximum and minimum signal for the assay was determined on each plate.

SMILES	14C-Glucose Incorporation (dpm) (L6 muscle cells; dose 1 μM)	14C-Glucose Incorporation (dpm) (L6 muscle cells; dose 3 μM)	14C-Glucose Incorporation (dpm) (L6 muscle cells; dose 10 μM)	glycogen synthesis in L6 skeletal muscle cells (L6 muscle cells)	PKC α Kinase Assay (IC50 uM) (PKC α) [µM]
O=C1NC(=O)C2=C1c1cn(c3ncccc13)CCOCCOCCOCCn1cc2c2cccnc21 [Cpd 1]	1898	1958	2426	increased glycogen synthesis	
O=C1NC(=O)C2=C1c1cn(c3ncccc13)CCOCCOCCOCCOCCn1cc2c2cccnc21 [Cpd 2]	2224	2518	2806	increased glycogen synthesis	
O=C1NC(=O)C2=C1c1cn(c3ccccc13)CCOCCOCCn1cc2c2cccnc21 [Cpd 10]					>10
O=C1NC(=O)C2=C1c1cn(c3ccccc13)CCOCCOCCOCCn1cc2c2cccnc21 [Cpd 11]					>10

— patent publication US6828327B2, “Macroheterocylic compounds useful as kinase inhibitors” (Ortho-McNeil Pharmaceutical, Inc., priority 2000, dated 2004)
